From publication PMC9369419 (International Journal of Molecular Sciences, 2022)

Biological target: T1, GluK5 (Rattus norvegicus, UniProt Q63273)
T1 construct: made in house; host or cells: Sf9 insect cells (membranes)
T1 sequence (Q63273 15-979): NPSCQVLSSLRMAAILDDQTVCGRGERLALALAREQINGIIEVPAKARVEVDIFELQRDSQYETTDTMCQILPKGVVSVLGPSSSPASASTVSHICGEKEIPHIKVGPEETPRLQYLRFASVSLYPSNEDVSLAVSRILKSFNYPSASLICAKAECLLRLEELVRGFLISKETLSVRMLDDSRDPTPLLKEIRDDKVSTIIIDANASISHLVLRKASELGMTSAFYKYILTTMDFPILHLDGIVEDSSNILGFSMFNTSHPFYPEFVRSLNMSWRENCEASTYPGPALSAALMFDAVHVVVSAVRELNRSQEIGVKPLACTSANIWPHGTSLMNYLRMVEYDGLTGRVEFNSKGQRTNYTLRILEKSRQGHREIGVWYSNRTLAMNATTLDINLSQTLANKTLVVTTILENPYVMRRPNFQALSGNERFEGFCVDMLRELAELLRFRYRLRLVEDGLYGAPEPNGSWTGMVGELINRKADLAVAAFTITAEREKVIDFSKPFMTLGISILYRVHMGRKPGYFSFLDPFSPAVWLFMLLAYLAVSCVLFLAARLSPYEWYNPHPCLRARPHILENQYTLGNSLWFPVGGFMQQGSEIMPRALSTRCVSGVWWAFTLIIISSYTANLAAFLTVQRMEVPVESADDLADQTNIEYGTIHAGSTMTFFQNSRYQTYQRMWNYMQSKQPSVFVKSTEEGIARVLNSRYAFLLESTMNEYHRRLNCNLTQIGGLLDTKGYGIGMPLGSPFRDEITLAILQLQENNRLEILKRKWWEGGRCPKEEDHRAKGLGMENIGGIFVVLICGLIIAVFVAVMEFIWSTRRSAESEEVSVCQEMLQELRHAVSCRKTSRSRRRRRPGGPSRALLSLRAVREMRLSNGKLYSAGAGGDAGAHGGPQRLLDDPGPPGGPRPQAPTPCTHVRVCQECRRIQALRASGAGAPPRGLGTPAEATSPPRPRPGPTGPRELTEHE
Assay: Radioligand binding at recombinant homomeric GluK5 in Sf9 membranes
Conditions: recombinant rat homomeric receptor, [3H]-kainic acid, mean ± SEM
Experimental: Ligand binding affinities at recombinant rat homomeric GluA2, GluK1−3, and GluK5 were determined as previously detailed. […] The filters were dried at 70 °C for 1 h, and 50 μL/well Microscint 20 (PerkinElmer, Waltham, MA, USA) was added. Radioactivity was detected with a TopCounter (PerkinElmer, Waltham, MA, USA). GluA2 and GluK5 assays were filtered on GF/C type filters using Millipore 12-well filtration manifolds (Merck Life Science, Søborg, Denmark) and washed twice with ice-cold assay buffer. Filters were placed in pony vials (PerkinElmer, Waltham, MA, USA), 3 mL of Ultima Gold scintillation fluid (PerkinElmer, Waltham, MA, USA) was added, and DPM (disintegrations per minute) were determined using a TriCarb 2900 scintillation counter (PerkinElmer, Waltham, MA, USA).
All competition curves (n ≥ 3 per ligand) were determined in triplicate. Data were analyzed using GraphPad Prism 6 (GraphPad Software, San Diego, CA, USA) to determine ligand affinity (Ki) and Hill coefficient (nH) using the one-site Ki and four-parameter logistics equations, respectively.

O=C(Nn1c(=O)c(=O)[nH]c2cc(C#Cc3cnc4cccnn34)ccc21)c1ccccc1 [Compound 28]
Ki: > 100 µM
